In patent EP1973398B1, “USE OF INOSITOL-TRIPYROPHOSPHATE IN TREATING TUMORS MEDIATED BY ANGIOGENESIS” (NormOxys, Inc., priority 2006, dated 2007):

Legend:
hemoglobin [1] = target: T1, hemoglobin (Homo sapiens, UniProt P68871); conditions: pH 7.4, 37 degrees C.; cited from earlier work
hemoglobin [2] = target: T1, hemoglobin; conditions: relative to DPG; cited from earlier work
murine hemoglobin = murine hemoglobin (Mus musculus, UniProt P01942+P02088); assay: In vitro P50 shift, mixtures of hemoglobin and ITPP, HEMOX analyzer; assay type: biochemical; conditions: with murine hemoglobin
Chain of murine hemoglobin (P01942 2-142 limits assumed): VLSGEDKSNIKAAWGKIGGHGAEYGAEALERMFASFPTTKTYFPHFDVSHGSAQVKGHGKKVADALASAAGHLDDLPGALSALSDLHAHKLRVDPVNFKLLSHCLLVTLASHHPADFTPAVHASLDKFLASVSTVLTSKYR
Chain of murine hemoglobin (P02088 2-147 limits assumed): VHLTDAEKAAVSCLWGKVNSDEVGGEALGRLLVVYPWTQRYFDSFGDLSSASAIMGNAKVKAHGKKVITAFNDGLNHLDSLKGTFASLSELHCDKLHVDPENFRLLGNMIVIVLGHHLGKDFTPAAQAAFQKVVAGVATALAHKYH
Protocol: ITPP was tested for its ability to induce a decrease of the O2-affinity of hemoglobin measured as a shift of the P50 value (P50 at 50% saturation of hemoglobin). With murine hemoglobin and whole blood, P50 shifts to higher PO2 of up to 250% with hemoglobin and up to 40% with whole blood were observed.
For the in vitro experiments ITPP was dissolved in deionized water, pH was adjusted at pH 7 and, for incubation with whole blood, the osmolality of the ITPP solutions was adjusted with glucose to 270-297 mOsM. Mixtures of hemoglobin and ITPP were measured with a HEMOX analyzer (PD Marketing, London) immediately. Red blood cells were incubated with ITPP for 1 hour at 37[deg.]C. Following incubation, the cells were washed 3 times with Bis-Tris-buffer (PH=7.0) and then used for P50 measurement.

[3] = Tolerability and serum ions in mice after intraperitoneal ITPP; assay type: in vivo
Protocol: (§1) When ITPP (pH 7, 200µl) was injected intraperitoneally in mice, the P50 values of circulating red blood cells were shifted up to 23%. […] The level of ions, such as sodium, potassium and calcium were normal after ip injection. Six (6) mice were each injected intraperitoneally with 45-150 mM (= 0.17-0.88 g/kg body weight) of ITPP.

[4] = Right shift of P50 in piglets, ITPP injected intravenously; assay type: in vivo
Protocol: ITPP was also injected intravenously (IV) in piglets.
(§2) Based upon this observation, a CaCl2 (equimolar to ITPP) solution was injected with the ITPP solution, so that the dissociated phosphate groups of ITPP were saturated. None of the side effects observed previously occurred. […] The level of the other ions sodium and potassium was unchanged after IV injection of ITPP in piglets.

whole blood = assay: In vitro P50 shift, whole blood / red blood cells incubated with ITPP; assay type: cell-based, murine
[5] = tested on: murine circulating red blood cells; assay: Right shift of the O2-hemoglobin dissociation curve in mice, ITPP orally in drinking water; assay type: in vivo, C57BL/6 mice
Protocol: ITPP was dissolved in drinking water at a 20g/L-concentration (= 27mM, pH ~7.0.) and offered for drinking ad libitum.
Twelve (12) C57BL/6 mice were fed the ITPP-solution (20g/L-concentration = 27mM, pH -7.0) for 4 days (up to 25 ml per 24 hrs). Three (3) control mice drank pure water, and four (4) control mice a solution of myoinositol hexaphosphate (IHP) (same concentration and pH as ITPP). Blood was collected from all mice on day 0 (before treatment started), and on days 1, 2, 4, 6, 7, 8, 10, 11 and 12 (after treatment had started), in order to measure P50 values.

[6] = tested on: circulating red blood cells; assay: Right shift of the ODC in mice, ITPP injected intraperitoneally; assay type: in vivo; conditions: intraperitoneal, pH 7, 200µl, 45-150 mM (0.17-0.88 g/kg body weight)
Protocol: as §1

[7] = Tolerability, serum ions and blood counts in mice after oral ITPP; assay type: in vivo, C57BL/6 mice
Protocol: Three (3) control mice drank pure water, and four (4) control mice a solution of myoinositol hexaphosphate (IHP) (same concentration and pH as ITPP).
Figure 3 contains the mean values and SD for the serum concentration of sodium, potassium and calcium obtained on day 0, 7 and 11 after start drinking ITPP (4 mice), IHP (3 mice) or water (3 mice).
Blood counts were measured from all mice, on day 0, 7 and 11.

[8] = Serum ion levels in piglets after intravenous ITPP; assay type: in vivo; conditions: for Ca^2+ conc.: piglet's circulation blood
Protocol: In order to check possible side effects of ITPP the level of calcium in the serum of the injected piglet was determined. A strong drop in the Ca^2+ concentration in the animal's blood immediately after infusion indicated the possibility that ITPP, with 3 dissociated phosphate groups binds Ca^2+, reducing thus its availability as free ion in the blood. One day after infusion the concentration of Ca^2+ in the piglets' blood was restored to the normal value. Table 1: Ca2+ concentration in the piglet's circulation blood
as §2

VEGF mRNA = VEGF mRNA by RT-PCR in Lewis Lung carcinoma tumors of mice drinking ITPP; assay type: in vivo, C57BL/6 mice; conditions: LLC tumors, mice having received ITPP 20g/L orally, day 9, versus controls; quantification of gel assays
Protocol: ITPP, when administered orally, intravenously, or intraperitoneally, inhibits angiogenesis in growing tumors by enhancing PO2 in the forming tumors. […] All animals received then 1x10^6 Lewis Lung carcinoma (LLC) cells, injected in the dorsal cavity. At different time points, the VEGF mRNA were assayed by RT-PCR in the tumors growing in both groups of mice.
There was a difference in the level of mRNA of the VEGF gene in both groups. […] The RT-PCR agarose gel assay of VEGF mRNAs from tumor tissue taken from 2 mice each on day 15 after inoculation of LLC cells (track 1: controls, track 2: ITPP treated animals) and day 30 after inoculation (track 3: control animals, track 4: ITPP treated animals).
Quantification of the gel assays indicated a reduction by a factor of 10,000 of the amount of VEGF mRNAs detected in the tumors of animals having received ITPP, at day 9 and then, while differences remain between treated and untreated animals, they tend to decrease.

T1 sequence (P69905 2-142 partner limits assumed): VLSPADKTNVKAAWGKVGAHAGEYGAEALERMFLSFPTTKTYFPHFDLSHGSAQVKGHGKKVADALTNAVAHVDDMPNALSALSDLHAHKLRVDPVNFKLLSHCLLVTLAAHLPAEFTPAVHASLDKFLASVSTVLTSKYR
T1 sequence (P68871 2-147 limits assumed): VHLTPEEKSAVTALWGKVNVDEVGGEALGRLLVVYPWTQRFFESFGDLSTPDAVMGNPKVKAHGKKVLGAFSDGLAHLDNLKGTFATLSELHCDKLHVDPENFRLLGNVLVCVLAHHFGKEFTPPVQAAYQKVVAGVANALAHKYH

O=P(O)(O)O[C@H]1[C@H](OP(=O)(O)O)[C@@H](OP(=O)(O)O)[C@H](OP(=O)(O)O)[C@@H](OP(=O)(O)O)[C@H]1OP(=O)(O)O [IHP, inositol hexaphosphate]
P50 of hemoglobin (hemoglobin [1]): ≤ 96.4 mm, Hg
higher affinity to hemoglobin than DPG (hemoglobin [2]): 1000 fold

O=P1(O)OC2C3OP(=O)(O)OP(=O)(O)OC3C3OP(=O)(O)OP(=O)(O)OC3C2OP(=O)(O)O1 (stereo not drawn) [ITPP, inositol-tripyrophosphate]
P50 shifts to higher PO2 (murine hemoglobin): up to 250%
concentration well tolerated by mice ([3]; intraperitoneal injection): ≤ 150000 µM
level of ions, such as sodium, potassium and calcium ([3]; mice, after ip injection): normal
P50 shift ([4]; IV, CaCl2 solution (equimolar to ITPP) injected with the ITPP solution): approximately 20 % of the basal value
shift of P50 ([4]; intravenous): right shift of P50 was observed
lysis of the red blood cells (whole blood; in vitro): never occurred
P50 shifts to higher PO2 (whole blood; with murine whole blood): up to 40%
P50 values after 12 days ([5]; ingestion stopped on day 4): back to control values
right shifts of P50 ([5]; mice, oral application, 27 mM): up to 31%
time lag before the maximum shift is attained ([5]; mice, oral, 27 mM): approximately 48 hrs
P50 values of circulating red blood cells shifted [6]: up to 23%
basal value of the red blood cell count ([7]; 12 days after ingestion of ITPP, once ΔP50 becomes 0%): restored
toxicity ([7]; administered orally): little or no toxicity
number of white blood cells ([7]; blood from mice in different groups, day 0, 7 and 11): no significant differences
number of red blood cells ([7]; mice having ingested ITPP, blood counts day 0, 7 and 11): reduced
acceptance / harm to the animals ([7]; mice, ITPP-solution 20g/L (27mM) in drinking water for 4 days): neither rejected by the mice, nor harmful to the animals
level of ions, such as sodium and potassium and calcium ([7]; mice, after oral application, serum, day 0, 7 and 11): normal
Ca^2+ conc. ([8]; 10 min after completion of injection (before injection 2.38)): 1.73 mmol/L
Ca^2+ conc. ([8]; 24 hrs after injection (before injection 2.38)): 2.36 mmol/L
level of calcium ([8]; piglets, IV, CaCl2 (equimolar to ITPP) injected with ITPP): remained constant
level of the other ions sodium and potassium ([8]; piglets, after IV injection of ITPP): unchanged
reduction of the amount of VEGF mRNAs detected in the tumors (VEGF mRNA): 10,000 factor
